The nature of data set [1]: DPPH free radical scavenging assay. To be noted: absorbance 517 nm, 20 min incubation; read-out: DPPH radical scavenging activity IC50 ± SEM. Here is the method: The ability of the sample to scavenge, 2-diphenyl-1-picrylhydrazyl (DPPH) free radicals was evaluated by standard method. The sample solutions were prepared in absolute alcohol, ranging from 0.01 mg/mL to 1 mg/mL. A total of 500 μL of sample was added with 500 µL of 2 µmol DPPH solution. After 20 min of incubation, the samples were placed in the dark at room temperature, the absorbance was taken at 517 nm. 500 µL of prepared DDPH solution and 500 µL of absolute alcohol were used as control. The similar procedure was repeated for ascorbic acid as standard[41],[42].
(§1) The percentage inhibition of radical scavenging activity was calculated as illustrated, %Inhibition=(AbsorbanceControl−AbsorbanceSample)/AbsorbanceControl×100

Data set [2] in a line: ABTS free radical cation scavenging assay. The conditions noted are these: absorbance 734 nm, 30 min incubation; read-out: ABTS radical scavenging activity IC50 ± SEM. How it is done: The (ABTS+) 2,2ʹ-azino-bis(3-ethylbenzothiazoline-6-sulphonic acid) free radical cation scavenging ability of the compounds was determined by standard method. 7 mM ABTS was dissolved in distilled water and 2.45 mM potassium persulfate was added. The solution was kept in the dark for 12–16 h at room temperature. The sample solutions were prepared in absolute alcohol ranging from 0.01 mg/mL to 1 mg/mL. The samples were added with ABTS solution and incubated for 30 min. The absorbance was taken at 734 nm and the procedure was repeated for ascorbic acid as standard.
as §1

Our source for the IC50 and melting point values is article PMC5717224, “New Hybrid Hydrazinyl Thiazole Substituted Chromones: As Potential α-Amylase Inhibitors and Radical (DPPH & ABTS) Scavengers” (Scientific Reports, 2017).

Structures are written as SMILES.

Regarding `O=C1O[C@H]([C@@H](O)CO)C(O)=C1O` [Ascorbic acid, reference compound], the half-maximal inhibitory concentration (IC50) came to 0.33 ± 0.18 µM in data set [1] and 0.53 ± 0.3 µM in data set [2].

For `O=Cc1coc2ccccc2c1=O` [Compound 1, 4-Oxo-4H-chromene-3-carbaldehyde], the 50% inhibitory concentration (IC50) in data set [1] was found to be 2.23 ± 0.79 µM; in data set [2], 3.74 ± 0.6 µM.

`Cc1ccc2occ(C=O)c(=O)c2c1` [Compound 2, 6-Methyl-4-oxo-4H-chromene-3-carbaldehyde]: the melting point fell in the range of 173 to 175 °C. In addition, the IC50 in data set [1] came to 2.23 ± 0.6 µM. In addition, the 50% inhibitory concentration (IC50) in data set [2] is 2.23 ± 0.06 µM.

`NC(=S)N/N=C\c1coc2ccccc2c1=O` [Compound 3, (Z)-2-((4-Oxo-4H-chromen-3-yl)methylene) hydrazinecarbothioamide] gave a melting point of 240 to 242 °C. Besides, in data set [1], the half-maximal inhibitory concentration (IC50) is 1.91 ± 0.06 µM. Also, the half-inhibitory concentration (IC50) in data set [2] was 1.92 ± 0.09 µM.

`Cc1ccc2occ(/C=N\NC(N)=S)c(=O)c2c1` [Compound 4, (Z)-2-((6-Methyl-4-oxo-4H-chromen-3-yl)methylene)hydrazinecarbothioamide] showed a melting point of 245 to 247 °C. In data set [1], the concentration for half-maximal inhibition (IC50) turned out to be 1.15 ± 0.12 µM. Moreover, the half-maximal inhibitory concentration (IC50) in data set [2] was 1.26 ± 0.1 µM.

In turn, `O=c1c(/C=N\Nc2nc(-c3ccccc3)cs2)coc2ccccc12` [Compound 5, (Z)-3-((2-(4-Phenylthiazol-2-yl)hydrazono)methyl)-4H-chromen-4-one] showed a melting point of 223 to 225 °C. Also, the half-maximal inhibitory concentration (IC50) in data set [1] was 1.11 ± 0.15 µM. For the same molecule, the IC50 in data set [2] worked out at 1.08 ± 0.15 µM.

In the case of `O=c1c(/C=N\Nc2nc(-c3cccc(O)c3)cs2)coc2ccccc12` [Compound 6, (Z)-3-((2-(4-(3-Hydroxyphenyl)thiazol-2-yl)hydrazono)methyl)-4H-chromen-4-one], the figures for the 50% inhibitory concentration (IC50) in data set [1] and in data set [2] were 1.9 ± 0.03 µM and 1.892 ± 0.01 µM, respectively.

`O=c1c(/C=N\Nc2nc(-c3ccc(Br)cc3)cs2)coc2ccccc12` [Compound 7, (Z)-3-((2-(4-(4-Bromophenyl)thiazol-2-yl)hydrazono)methyl)-4H-chromen-4-one] came in with a melting point of 230 to 232 °C. Besides, in data set [1], the IC50 came out at 0.892 ± 0.09 µM. Further, the IC50 in data set [2] was 0.83 ± 0.25 µM.

Regarding `O=c1c(/C=N\Nc2nc(-c3cccc(Br)c3)cs2)coc2ccccc12` [Compound 8, (Z)-3-((2-(4-(3-Bromophenyl)thiazol-2-yl)hydrazono)methyl)-4H-chromen-4-one], the melting point lay within 225 to 227 °C. The IC50 in data set [1] is 0.912 ± 0.23 µM. Moreover, the IC50 in data set [2] was 0.914 ± 0.19 µM.

Regarding `O=c1c(/C=N\Nc2nc(-c3ccc(Cl)c(Cl)c3)cs2)coc2ccccc12` [Compound 9, (Z)-3-((2-(4-(3,4-Dichlorophenyl)thiazol-2-yl)hydrazono)methyl)-4H-chromen-4-one], the melting point lay within 245 to 247 °C. In data set [1], the IC50 was found to be 0.314 ± 0.12 µM. Further, in data set [2], the IC50 amounted to 0.784 ± 0.12 µM.

Molecule `O=c1c(/C=N\Nc2nc(-c3ccc(Cl)cc3Cl)cs2)coc2ccccc12` [Compound 10, (Z)-3-((2-(4-(2,4-Dichlorophenyl)thiazol-2-yl)hydrazono)methyl)-4H-chromen-4-one] had a melting point of 243 to 245 °C. Also, the half-inhibitory concentration (IC50) in data set [1] is 0.09 ± 0.17 µM. Further, the IC50 in data set [2] came out at 0.677 ± 0.26 µM.

On to `O=c1c(/C=N\Nc2nc(-c3ccc(Cl)cc3)cs2)coc2ccccc12` [Compound 11, (Z)-3-((2-(4-(4-Chlorophenyl)thiazol-2-yl)hydrazono)methyl)-4H-chromen-4-one], for which the melting point fell in the range of 239 to 241 °C. Moreover, the IC50 in data set [1] turned out to be 0.922 ± 0.22 µM. Also, in data set [2], the IC50 worked out at 0.918 ± 0.14 µM.

`O=c1c(/C=N\Nc2nc(-c3cccc(Cl)c3)cs2)coc2ccccc12` [Compound 12, (Z)-3-((2-(4-(3-Chlorophenyl)thiazol-2-yl)hydrazono)methyl)-4H-chromen-4-one]: the melting point was in the range of 228 to 230 °C. In addition, in data set [1], the half-inhibitory concentration (IC50) turned out to be 1.05 ± 0.03 µM. Further, the concentration for half-maximal inhibition (IC50) in data set [2] was 1.08 ± 0.08 µM.

For `O=c1c(/C=N\Nc2nc(-c3cccc([N+](=O)[O-])c3)cs2)coc2ccccc12` [Compound 13, (Z)-3-((2-(4-(3-Nitrophenyl)thiazol-2-yl)hydrazono)methyl)-4H-chromen-4-one], the melting point was in the range of 235 to 237 °C. The IC50 in data set [1] was 1.75 ± 0.04 µM. Further, the IC50 in data set [2] stood at 1.89 ± 0.05 µM.

`N#Cc1ccc(-c2csc(N/N=C\c3coc4ccccc4c3=O)n2)cc1` [Compound 14, (Z)-4-(2-(2-((4-Oxo-4H-chromen-3-yl)methylene)hydrazinyl)thiazol-4-yl)benzonitrile] registered a melting point of 225 to 227 °C. The half-maximal inhibitory concentration (IC50) in data set [1] amounted to 1.29 ± 0.1 µM. In addition, the IC50 in data set [2] is 1.26 ± 0.07 µM.

`O=c1c(/C=N\Nc2nc(-c3ccc(-c4ccccc4)cc3)cs2)coc2ccccc12` [Compound 15, (Z)-3-((2-(4-(Biphenyl-4-yl)thiazol-2-yl)hydrazono)methyl)-4H-chromen-4-one] yielded a melting point of 234 to 236 °C. For the same molecule, in data set [1], the half-inhibitory concentration (IC50) came to 1.41 ± 0.05 µM. Besides, the concentration for half-maximal inhibition (IC50) in data set [2] was found to be 1.64 ± 0.04 µM.

Take `Cc1ccc2occ(/C=N\Nc3nc(-c4ccccc4)cs3)c(=O)c2c1` [Compound 16, (Z)-6-Methyl-3-((2-(4-phenylthiazol-2-yl)hydrazono)methyl)-4H-chromen-4-one]: the melting point was in the range of 235 to 237 °C. Further, the IC50 in data set [1] was 1.37 ± 0.2 µM. Besides, the half-inhibitory concentration (IC50) in data set [2] turned out to be 1.32 ± 0.2 µM.

In turn, `Cc1ccc2occ(/C=N\Nc3nc(-c4cccc(O)c4)cs3)c(=O)c2c1` [Compound 17, (Z)-3-((2-(4-(3-Hydroxyphenyl)thiazol-2-yl)hydrazono)methyl)-6-methyl-4H-chromen-4-one] registered a melting point of 237 to 239 °C. Moreover, in data set [1], the IC50 stood at 1.34 ± 0.09 µM. In data set [2], the IC50 was 1.38 ± 0.05 µM.

`Cc1ccc2occ(/C=N\Nc3nc(-c4ccccc4O)cs3)c(=O)c2c1` [Compound 18, (Z)-3-((2-(4-(2-Hydroxyphenyl)thiazol-2-yl)hydrazono)methyl)-6-methyl-4H-chromen-4-one] gave a melting point of 230 to 232 °C. Besides, the IC50 in data set [1] amounted to 1.66 ± 0.6 µM. In addition, in data set [2], the IC50 was found to be 1.73 ± 0.05 µM.

`Cc1ccc2occ(/C=N\Nc3nc(-c4cccc(Br)c4)cs3)c(=O)c2c1` [Compound 19, (Z)-3-((2-(4-(3-Bromophenyl)thiazol-2-yl)hydrazono)methyl)-6-methyl-4H-chromen-4-one]: the concentration for half-maximal inhibition (IC50) in data set [1] came out at 0.781 ± 0.18 µM; in data set [2], 0.584 ± 0.07 µM.

Regarding `Cc1ccc2occ(/C=N\Nc3nc(-c4ccc(Br)cc4)cs3)c(=O)c2c1` [Compound 20, (Z)-3-((2-(4-(4-Bromophenyl)thiazol-2-yl)hydrazono)methyl)-6-methyl-4H-chromen-4-one], the melting point is 235 to 237 °C. Further, the half-inhibitory concentration (IC50) in data set [1] came out at 0.611 ± 0.29 µM. Also, in data set [2], the half-maximal inhibitory concentration (IC50) amounted to 0.66 ± 0.16 µM.

Take `Cc1ccc2occ(/C=N\Nc3nc(-c4ccc(Cl)cc4Cl)cs3)c(=O)c2c1` [Compound 21, (Z)-3-((2-(4-(2,4-Dichlorophenyl)thiazol-2-yl)hydrazono)methyl)-6-methyl-4H-chromen-4-one]: the melting point was in the range of 245 to 247 °C. Besides, in data set [1], the 50% inhibitory concentration (IC50) is 0.684 ± 0.13 µM. Further, in data set [2], the 50% inhibitory concentration (IC50) came to 0.71 ± 0.09 µM.

`Cc1ccc2occ(/C=N\Nc3nc(-c4ccc(Cl)c(Cl)c4)cs3)c(=O)c2c1` [Compound 22, (Z)-3-((2-(4-(3,4-Dichlorophenyl)thiazol-2-yl)hydrazono)methyl)-6-methyl-4H-chromen-4-one] came in with a melting point of 246 to 248 °C. In addition, the IC50 in data set [1] stood at 0.688 ± 0.17 µM. Besides, in data set [2], the 50% inhibitory concentration (IC50) is 0.719 ± 0.1 µM.

`Cc1ccc2occ(/C=N\Nc3nc(-c4ccc(Cl)cc4)cs3)c(=O)c2c1` [Compound 23, (Z)-3-((2-(4-(4-Chlorophenyl)thiazol-2-yl)hydrazono)methyl)-6-methyl-4H-chromen-4-one] had a melting point of 245 to 247 °C. In addition, the IC50 in data set [1] stood at 0.84 ± 0.1 µM. For the same molecule, in data set [2], the IC50 is 0.82 ± 0.18 µM.

The molecule `Cc1ccc2occ(/C=N\Nc3nc(-c4cccc(Cl)c4)cs3)c(=O)c2c1` [Compound 24, (Z)-3-((2-(4-(3-Chlorophenyl)thiazol-2-yl)hydrazono)methyl)-6-methyl-4H-chromen-4-one] showed a melting point of 230 to 232 °C. Further, the 50% inhibitory concentration (IC50) in data set [1] amounted to 0.99 ± 0.12 µM. Moreover, the IC50 in data set [2] turned out to be 1.02 ± 0.04 µM.

For the molecule `Cc1ccc2occ(/C=N\Nc3nc(-c4cccc([N+](=O)[O-])c4)cs3)c(=O)c2c1` [Compound 25, (Z)-6-Methyl-3-((2-(4-(3-nitrophenyl)thiazol-2-yl)hydrazono)methyl)-4H-chromen-4-one], the melting point fell in the range of 240 to 242 °C. Besides, the concentration for half-maximal inhibition (IC50) in data set [1] is 1.31 ± 0.06 µM. For the same molecule, in data set [2], the concentration for half-maximal inhibition (IC50) amounted to 1.3 ± 0.11 µM.

In the case of `Cc1ccc2occ(/C=N\Nc3nc(-c4ccc(C#N)cc4)cs3)c(=O)c2c1` [Compound 26, (Z)-4-(2-(2-((6-Methyl-4-oxo-4H-chromen-3-yl)methylene)hydrazinyl)thiazol-4-yl)benzonitrile], the melting point lay within 238 to 240 °C. In addition, the half-inhibitory concentration (IC50) in data set [1] turned out to be 1.29 ± 0.13 µM. Besides, the half-maximal inhibitory concentration (IC50) in data set [2] was determined as 1.28 ± 0.04 µM.

In turn, `Cc1ccc2occ(/C=N\Nc3nc(-c4ccc(-c5ccccc5)cc4)cs3)c(=O)c2c1` [Compound 27, (Z)-3-((2-(4-(Biphenyl-4-yl)thiazol-2-yl)hydrazono)methyl)-6-methyl-4H-chromen-4-one] displayed a melting point of 235 to 237 °C. Also, in data set [1], the concentration for half-maximal inhibition (IC50) is 1.34 ± 0.07 µM. Further, the IC50 in data set [2] stood at 1.29 ± 0.07 µM.

In general, IC50 refers to the concentration needed to halve the response being measured. The term melting point denotes the temperature, or range, at which the solid turns liquid.
